Measurements taken from patent US20210000782A1, “APPLICATION OF DROFENINE OR SALT THEREOF TO PREPARATION OF MEDICINE FOR TREATING PERIPHERAL NEURON AXONAL INJURY AND PERIPHERAL RELATED NEUROPATHY” (NANJING UNIVERSITY OF CHINESE MEDICINE, priority 2018, published 2021).

How the values were obtained:
[1] = test system: STZ-induced type I diabetic mice; experiment: Paw withdrawal experiment (Von Frey, 50% mechanical pain threshold), type I diabetic peripheral neuropathy; assay type: in vivo, C57BL/6J mice; conditions: n = 6
Procedure: (§1) The experiment was based on that when rodents received a mechanical stimulation at their paws, they generated withdrawal reflex. A Von Frey may provide stimulation force in a range of 0.008 g to 300 g. A magnitude of the stimulation force was determined by a thickness and an extending length of a nylon wire. The nylon wire with a proper thickness was selected according to practical conditions in the experiment. The proper extending length was regulated to realize vertical stimulation on the skin. The magnitude of the stimulation force might be regulated by regulating the extending length and changing the nylon wire until the nylon wire bended. The response of mice on the pain was evaluated on the basis.
(§2) 1) Animal grouped administration condition (type I diabetic mice): C57BL/6J mice were purchased from Beijing Vital River. After adaptive feeding for a week, intraperitoneal injection of STZ (180 mg/kg) was performed. Blood glucose was measured after 4-7 days. Mice with the blood glucose higher than 16 mmol/L were randomly selected. After 6 weeks after the STZ injection, grouping was performed according to body weights and the blood glucose to obtain a control group (non-diabetic mice), a model group (DPN mice), drofenine (10 mg/kg), and drofenine (20 mg/kg). Intraperitoneal injection of drofenine was performed for 4 weeks. The motor nerve conduction velocity, mechanical pain and heat pain were respectively tested in 0th week, 4th week and 8th week after the STZ injection.
(§3) 2) Von Frey tactile measuring suits were purchased from a company, and a plantar test instrument was purchased from UGO company.
(§4) 3) Paw withdrawal Experiment: A nylon wire with a proper thickness was selected. A proper extending length was regulated to realize vertical simulation on the skin. The magnitude of stimulation force might be regulated by regulating the extending length and changing the nylon wire until the nylon wire bended. Each mouse was tested for six times to determine a threshold. A 50% mechanical pain threshold of the mice was calculated according to 50% threshold=(10^ (x^f+kδ))/10000.

BChE = BChE (Homo sapiens, UniProt P06276); conditions: background statement; cited from earlier work
[2] = test system: db/db type II diabetic mice; experiment: Heat pain testing experiment, type II diabetic peripheral neuropathy; assay type: in vivo; conditions: n = 6
Procedure: (§5) 2) Animal grouped administration condition (type II diabetic mice): 16-week-old db/db mice were selected and subjected to adaptive feeding for a week. Grouping was performed according to body weights and blood glucose to obtain a control group, a model group, a drofenine low-dose group (10 mg/kg), and a drofenine medium-dose group (20 mg/kg). Before administration, the motor nerve conduction velocity and a 50% mechanical pain threshold were measured to determine DPN symptoms. Intraperitoneal injection of drofenine was performed for 4 weeks. The mechanical pain, heat pain and motor nerve conduction velocity were tested in each week.
as §3
(§6) 4) Heat pain testing experiment: An infrared instrument was placed under the sole of the mouse, and kept still. The time was recorded when the paw of the mouse withdrew. This time was heat pain response time of the mouse.

[3] = test system: DRG primary cells (peripheral sensory neurons); experiment: Growth of peripheral sensory neurites, β-tubulin III fluorescent staining; assay type: cell-based, C57BL6 mouse; conditions: 24 hours incubation with different concentrations of drofenine, FIG. 1 and FIG. 2
Procedure: The experiment was based on that DPN firstly leads to abnormality of sensory neurons, and the main pathological changes were axonal atrophy and degeneration, or even disappearance. For DRG, as peripheral sensory neurons, its neurite growth state is closely related to a development process of the DPN. The inventor of the present invention added DMSO and different concentrations of drofenine into DRG primary cells for common incubation for a certain time. Then, the growth of the neurites was determined by a β-tubulin III fluorescent staining detection method, and lengths were quantified by ImageJ. The effect of the drofenine on promoting the growth of the peripheral sensory neurites was evaluated on the basis.
1) β-tubulin III for fluorescent staining was purchased from Sigma company. All cell culture reagents were purchased from Gibco company. DRG cells were taken from C57BL6 mouse spines.
2) β-tubulin III staining experiment: DRG cells were inoculated in a 12-hole plate at 100 cells/hole. After the DRG cells were attached to a wall overnight, incubation was performed for 24 hours by different concentrations of drofenine. Then, an original culture medium is removed. 4% of paraformaldehyde was added into each hole for immobilization for 15 min. Permeabilization was performed for 5 min by 0.3% Triton. After PBS washing, room-temperature sealing was performed for 1 h. […]

[4] = test system: STZ-induced type I diabetic mice; experiment: Heat pain testing experiment, type I diabetic peripheral neuropathy; assay type: in vivo, C57BL/6J mice; conditions: n = 6
Procedure: as §2, §3, §6

[5] = test system: db/db type II diabetic mice; experiment: Motor nerve conduction velocity, type II diabetic peripheral neuropathy; assay type: in vivo; conditions: for Motor nerve conduction velocity: db/db mice, n = 6
Procedure: as §5
(§7) 5) Motor nerve conduction velocity testing experiment: (1) Electrode placement: A stimulation electrode was placed at a nerve trunk, a recording electrode was placed at a muscle belly, a reference electrode was placed at a muscle tendon, and a ground wire was placed between the stimulation electrode and the recording electrode. (2) Motor nerve conduction velocity calculation: Super-strong stimulation was performed on distal and proximal ends of the nerve trunk, 2 compound muscle action potentials might be recorded on muscles dominated by this nerve, and different latency periods thereof were measured. The nerve conduction velocity was obtained by dividing a distance between the distal and proximal ends by a latency period difference between two points. A calculation formula was: Nerve conduction velocity (m/s)=distance between two points (cm)×10/latency period difference between two points.

[6] = test system: STZ-induced type I diabetic mice; experiment: Motor nerve conduction velocity, type I diabetic peripheral neuropathy; assay type: in vivo, C57BL/6J mice; conditions: for Motor nerve conduction velocity: STZ mice, n = 6
Procedure: as §2, §7

[7] = test system: db/db type II diabetic mice; experiment: Paw withdrawal experiment (Von Frey, 50% mechanical pain threshold), type II diabetic peripheral neuropathy; assay type: in vivo; conditions: n = 6
Procedure: as §1, §5, §3, §4

[8] = 10 mg/kg intraperitoneal, administration week 0, mean ± SEM
[9] = 10 mg/kg intraperitoneal, administration week 1, mean ± SEM
[10] = 10 mg/kg intraperitoneal, administration week 2, mean ± SEM
[11] = 10 mg/kg intraperitoneal, administration week 3, mean ± SEM
[12] = 10 mg/kg intraperitoneal, administration week 4, mean ± SEM
[13] = 20 mg/kg intraperitoneal, administration week 0, mean ± SEM
[14] = 20 mg/kg intraperitoneal, administration week 1, mean ± SEM
[15] = 20 mg/kg intraperitoneal, administration week 2, mean ± SEM
[16] = 20 mg/kg intraperitoneal, administration week 3, mean ± SEM
[17] = 20 mg/kg intraperitoneal, administration week 4, mean ± SEM

BChE, sequence (P06276 29-602, species assumed): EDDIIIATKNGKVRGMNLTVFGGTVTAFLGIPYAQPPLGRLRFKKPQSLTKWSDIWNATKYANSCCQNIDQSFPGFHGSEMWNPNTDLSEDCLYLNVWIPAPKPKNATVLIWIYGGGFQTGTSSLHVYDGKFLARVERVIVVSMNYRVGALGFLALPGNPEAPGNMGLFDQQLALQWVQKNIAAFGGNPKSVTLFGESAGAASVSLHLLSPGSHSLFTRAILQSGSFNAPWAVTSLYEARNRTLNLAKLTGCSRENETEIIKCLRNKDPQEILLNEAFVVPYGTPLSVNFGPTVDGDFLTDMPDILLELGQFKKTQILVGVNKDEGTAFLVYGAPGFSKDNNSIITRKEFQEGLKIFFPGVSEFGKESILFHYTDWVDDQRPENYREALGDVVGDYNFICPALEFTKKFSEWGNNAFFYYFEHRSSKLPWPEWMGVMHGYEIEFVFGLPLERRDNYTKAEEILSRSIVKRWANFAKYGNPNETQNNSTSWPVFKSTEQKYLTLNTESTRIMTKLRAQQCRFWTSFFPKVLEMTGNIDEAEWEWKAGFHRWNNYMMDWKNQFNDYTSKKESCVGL

## CCN(CC)CCOC(=O)C(c1ccccc1)C1CCCCC1 (stereo not shown) [Drofenine]
[1]; [8]
  50% paw withdrawal threshold: 2.77 ± 0.19 g
[1]; [9]
  50% paw withdrawal threshold: 2.53 ± 0.25 g
[1]; [10]
  50% paw withdrawal threshold: 1.31 ± 0.13 g
[1]; [11]
  50% paw withdrawal threshold: 1.40 ± 0.13 g
[1]; [12]
  50% paw withdrawal threshold: 1.45 ± 0.11 g
[1]; [13]
  50% paw withdrawal threshold: 2.77 ± 0.19 g
[1]; [14]
  50% paw withdrawal threshold: 2.06 ± 0.31 g
[1]; [15]
  50% paw withdrawal threshold: 1.31 ± 0.13 g
[1]; [16]
  50% paw withdrawal threshold: 1.27 ± 0.12 g
[1]; [17]
  50% paw withdrawal threshold: 1.35 ± 0.10 g
BChE
  BChE inhibition: effective BChE competitive inhibitor
[2]; [8]
  Heat response: 10.43 ± 0.98 s
[2]; [9]
  Heat response: 13.52 ± 0.69 s
[2]; [10]
  Heat response: 10.58 ± 0.32 s
[2]; [11]
  Heat response: 8.96 ± 0.56 s
[2]; [12]
  Heat response: 9.78 ± 0.56 s
[2]; [13]
  Heat response: 10.39 ± 0.30 s
[2]; [14]
  Heat response: 10.77 ± 0.54 s
[2]; [15]
  Heat response: 8.54 ± 0.79 s
[2]; [16]
  Heat response: 8.51 ± 0.55 s
[2]; [17]
  Heat response: 8.01 ± 0.68 s
[3]
  growth of the peripheral sensory neurites: promote the growth (quantitative diagram) of the peripheral sensory neurites in a concentration dependent way
[4]; [8]
  Heat response: 11.43 ± 0.98 s
[4]; [9]
  Heat response: 11.12 ± 0.66 s
[4]; [10]
  Heat response: 10.28 ± 0.68 s
[4]; [11]
  Heat response: 8.96 ± 0.26 s
[4]; [12]
  Heat response: 8.78 ± 0.26 s
[4]; [13]
  Heat response: 10.3 ± 0.60 s
[4]; [14]
  Heat response: 10.77 ± 0.94 s
[4]; [15]
  Heat response: 8.64 ± 0.69 s
[4]; [16]
  Heat response: 7.91 ± 0.54 s
[4]; [17]
  Heat response: 7.71 ± 0.68 s
[5]; [8]
  Motor nerve conduction velocity: 34.61 ± 1.06 m/s
[5]; [9]
  Motor nerve conduction velocity: 36.55 ± 2.14 m/s
[5]; [10]
  Motor nerve conduction velocity: 38.23 ± 3.20 m/s
[5]; [11]
  Motor nerve conduction velocity: 39.34 ± 2.89 m/s
[5]; [12]
  Motor nerve conduction velocity: 40.12 ± 2.87 m/s
[5]; [13]
  Motor nerve conduction velocity: 35.63 ± 1.03 m/s
[5]; [14]
  Motor nerve conduction velocity: 38.82 ± 1.37 m/s
[5]; [15]
  Motor nerve conduction velocity: 40.23 ± 2.02 m/s
[5]; [16]
  Motor nerve conduction velocity: 41.56 ± 2.35 m/s
[5]; [17]
  Motor nerve conduction velocity: 42.28 ± 2.26 m/s
[5]; summary in words of Tables 4-6, db/db mice
  motor nerve conduction velocity and sensation loss of db/db type II diabetic peripheral neuropathy: significantly relieve
[6]; [8]
  Motor nerve conduction velocity: 39.61 ± 1.06 m/s
[6]; [10]
  Motor nerve conduction velocity: 40.55 ± 2.14 m/s
[6]; [13]
  Motor nerve conduction velocity: 40.63 ± 1.03 m/s
[6]; [15]
  Motor nerve conduction velocity: 43.82 ± 1.37 m/s
[6]; summary in words of Tables 1-3, STZ mice
  motor nerve conduction velocity and sensation loss of the type I diabetic peripheral neuropathy: significantly relieve
[7]; [8]
  50% paw withdrawal threshold: 2.81 ± 0.17 g
[7]; [9]
  50% paw withdrawal threshold: 2.82 ± 0.22 g
[7]; [10]
  50% paw withdrawal threshold: 2.21 ± 0.13 g
[7]; [11]
  50% paw withdrawal threshold: 2.09 ± 0.34 g
[7]; [12]
  50% paw withdrawal threshold: 1.98 ± 0.21 g
[7]; [13]
  50% paw withdrawal threshold: 2.83 ± 0.19 g
[7]; [14]
  50% paw withdrawal threshold: 2.62 ± 0.26 g
[7]; [15]
  50% paw withdrawal threshold: 2.01 ± 0.13 g
[7]; [16]
  50% paw withdrawal threshold: 1.92 ± 0.12 g
[7]; [17]
  50% paw withdrawal threshold: 1.82 ± 0.01 g
